In BindingDB's records for doi:10.1021/acschembio.6b00609 (University of Manchester, 2016):

Biological target: Poly(ADP-ribose) glycohydrolase (Homo sapiens, UniProt Q86W56)
Experiment: PARG Biochemical Assay
Details: pH 7.4
Method: Briefly, PARG in vitro assays were conducted in a total volume of 15 μL in a standard 384-well format. A total of 5 μL of human full length PARG (AstraZeneca), used at a final reaction concentration of 65 pM, was added to 5 μL of Bt-NAD ribosylated PARP1 substrate (AstraZeneca) at a final reaction concentration of 4.8 nM in assay buffer (50 mM Tris pH 7.4, 0.1 mg mL−1 BSA, 3 mM EDTA, 0.4 mM EGTA, 1 mM DTT, 0.01% Tween 20, 50 mM KCl). The reaction was incubated at RT for 10 min, and then 5 μL of detection reagent was added. Detection reagent consists of 42 nM mAb anti-6HIS XL665 (CisBio: 61HISXLB) and2.25 nM streptavidin europium cryptate (CisBio: 610SAKLB), both at 3× working stock concentrations (final concentrations of 14 nM and 0.75 nM, respectively), in detection buffer (50 mM Tris pH 7.4, 0.1 mg mL−1 BSA and 100 mM KF). Following incubation at RT for 60 min in the dark, TR-FRET signal was measured at λEx 340 nm and λEm 665 nm and λEm

Chain of Poly(ADP-ribose) glycohydrolase (Q86W56 whole entry): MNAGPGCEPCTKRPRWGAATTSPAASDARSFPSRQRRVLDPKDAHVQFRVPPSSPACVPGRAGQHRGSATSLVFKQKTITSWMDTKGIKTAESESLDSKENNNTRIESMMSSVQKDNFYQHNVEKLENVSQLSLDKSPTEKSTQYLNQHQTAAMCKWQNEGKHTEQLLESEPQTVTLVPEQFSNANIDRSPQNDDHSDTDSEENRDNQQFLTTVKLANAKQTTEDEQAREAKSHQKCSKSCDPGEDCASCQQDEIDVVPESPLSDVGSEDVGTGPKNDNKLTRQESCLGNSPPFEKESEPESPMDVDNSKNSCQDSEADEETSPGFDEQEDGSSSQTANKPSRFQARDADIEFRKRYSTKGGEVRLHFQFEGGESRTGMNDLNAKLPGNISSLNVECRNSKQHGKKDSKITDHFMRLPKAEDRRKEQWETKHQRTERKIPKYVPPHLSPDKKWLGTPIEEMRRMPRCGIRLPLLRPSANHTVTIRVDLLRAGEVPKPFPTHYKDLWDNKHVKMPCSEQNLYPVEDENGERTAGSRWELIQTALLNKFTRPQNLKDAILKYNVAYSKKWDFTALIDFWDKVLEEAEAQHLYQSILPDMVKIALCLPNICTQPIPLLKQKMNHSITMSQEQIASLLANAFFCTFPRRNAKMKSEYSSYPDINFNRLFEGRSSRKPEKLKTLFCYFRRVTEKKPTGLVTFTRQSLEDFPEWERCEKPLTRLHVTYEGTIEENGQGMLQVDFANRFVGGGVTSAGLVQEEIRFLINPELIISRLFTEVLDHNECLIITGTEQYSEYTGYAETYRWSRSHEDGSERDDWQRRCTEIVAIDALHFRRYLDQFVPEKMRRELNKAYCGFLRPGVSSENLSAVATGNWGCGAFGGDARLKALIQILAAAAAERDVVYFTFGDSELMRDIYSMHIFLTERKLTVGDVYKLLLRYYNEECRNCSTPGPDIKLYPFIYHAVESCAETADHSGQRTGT

`CC(C)(C)NS(=O)(=O)c1ccc2c(c1)C(=O)c1ccccc1C2=O` [PDD00013907 (1)] was tested. Which IC50 did it give?
The IC50 was over 60000 nM.

How did the IC50 turn out when `Cc1nc(C)c(Cn2c(=O)n(-c3ncns3)c3cc(S(=O)(=O)NC4(C)CC4)ccc32)s1` [PDD00017238 (5)] was run?
The IC50 was 40 nM.

For `Cc1cc(Cn2c(=O)n(Cc3cnc(C)s3)c(=O)c3cc(S(=O)(=O)NC4(C)CC4)ccc32)n(C)n1` [PDD00017273 (4)], which IC50 is on record?
The IC50 was 26 nM.

`Cc1cc(Cn2c(=O)n(Cc3cnc(C)s3)c(=O)c3cc(S(=O)(=O)N(C)C4(C)CC4)ccc32)n(C)n1` [PDD00031704 (6)] was tested. Which IC50 did it give?
Its IC50 is over 60000 nM.

With `Cc1nc(C)c(Cn2c(=O)n(-c3ncns3)c3cc(S(=O)(=O)N(C)C4(C)CC4)ccc32)s1` [PDD00031705 (7)] as the compound, how does the IC50 read?
The IC50 was over 60000 nM.
